According to patent US20260176320A1, “MODULATORS OF G-PROTEIN COUPLED RECEPTORS” (priority 2018, published 2026):
Like-named read-outs stand apart in the source and are kept apart here.

Assays:
[1] = tested on: mice; assay: Conditioned taste aversion (CTA) in mice; type: in vivo, mouse; conditions: s.c., 30 nmol/kg, saccharine preference vs vehicle
Procedure: A value of CTA=0.0-0.6 indicates significant aversion to a compound. The conditioned taste aversion assay measures the preference for a dilute saccharin solution that is associated with compound administration.
One week before start of experiment (Day-7), animals were transferred to single house double grommet cages. A 50 ml water bottle was placed, and consistently replaced when refilled in the same grommet to habituate the animal to a “water” side. After 7 days of baseline water consumption, animals began the taste preference procedure. On Day 1, the animals were weighed and deprived of water at […]. On acquisition day (Day 2), mice had access to a single bottle containing 0.15% saccharin solution, on the opposite side to the “water” habituated side and allowed to consume for 3 h, from 6 pm until 9 pm. The saccharine bottles were then removed and weighed to record the 3 h consumption. […] On Day 3, the water was removed and weighed at 6 pm. On Day 4, both saccharine and water bottles were weighed and returned simultaneously to respective grommet at 6 pm. On Day 5, the bottles were removed at 6 pm and weighed. Saccharine consumption was measured as a percent of the total amount of fluid consumed. The reduction of saccharin consumption during the retrieval was used as a measure of CTA strength. Liraglutide and semaglutide were used as positive controls.

[2] = biological target: T1, GLP-1R (Homo sapiens, UniProt P43220); assay: HitHunter cAMP assay (GLP-1R); type: cell-based; conditions: cAMP; for Emax: read-out: (Emax) GLP-1R
Summary of the method: (§1)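 Agonist stimulation lasts 30 min at room temperature on 10,000 cells per well, with phosphodiesterase blocked by 625 μM IBMX. Accumulated cAMP is quantified by competitive antibody luminescence after overnight development.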

[3] = biological target: T2, GIP-R (Homo sapiens, UniProt P48546); assay: HitHunter cAMP assay (GIP-R); type: cell-based; conditions: cAMP; for Emax: read-out: (Emax) GIP-R
T2 sequence (P48546 22-466): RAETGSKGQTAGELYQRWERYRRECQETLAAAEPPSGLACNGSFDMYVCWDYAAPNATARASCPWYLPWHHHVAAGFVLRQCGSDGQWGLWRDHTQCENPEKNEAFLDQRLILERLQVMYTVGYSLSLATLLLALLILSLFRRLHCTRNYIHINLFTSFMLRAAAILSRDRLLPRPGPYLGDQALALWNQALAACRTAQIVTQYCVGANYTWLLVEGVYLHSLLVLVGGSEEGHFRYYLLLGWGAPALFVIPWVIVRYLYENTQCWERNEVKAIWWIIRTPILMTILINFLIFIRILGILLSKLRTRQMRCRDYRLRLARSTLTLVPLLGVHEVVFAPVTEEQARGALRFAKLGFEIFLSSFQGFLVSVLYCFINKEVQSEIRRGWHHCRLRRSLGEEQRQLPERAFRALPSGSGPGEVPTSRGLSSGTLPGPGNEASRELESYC
Summary of the method: as §1

[4] = biological target: T1, GLP-1R; assay: PathHunter β-arrestin assay; type: cell-based
Summary of the method: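 Recruitment of β-arrestin is measured by luminescence after cells, plated overnight, receive serially diluted agonist for 90 min at 37 °C in medium with 0.2% BSA. Detection reagent then develops for 3 h at room temperature, protected from light.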

[5] = tested on: mice; assay: Glucose tolerance test (GTT); type: in vivo, mouse; conditions: 24 h GTT, s.c., dose range 2-5 nmol/kg, percent of vehicle
Summary of the method: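 Compounds diluted in PBS from 1 mM DMSO stocks and given subcutaneously 15 min (5-6 h fast), 4 h (16 h overnight fast), 16 h or 24 h before intraperitoneal glucose (2 g/kg). Tail blood glucose read at 10–120 min post-glucose, at least 6 mice per time-point. Glucose AUC over time determined.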

[6] = Table 3A, read-out: EC50 GLP-1R/nM
[7] = Table 3A, read-out: EC50 GIP-R/nM
[8] = PathHunter β-arrestin assay, read-out: β-arrestin activity EC50

T1 sequence (P43220 24-463): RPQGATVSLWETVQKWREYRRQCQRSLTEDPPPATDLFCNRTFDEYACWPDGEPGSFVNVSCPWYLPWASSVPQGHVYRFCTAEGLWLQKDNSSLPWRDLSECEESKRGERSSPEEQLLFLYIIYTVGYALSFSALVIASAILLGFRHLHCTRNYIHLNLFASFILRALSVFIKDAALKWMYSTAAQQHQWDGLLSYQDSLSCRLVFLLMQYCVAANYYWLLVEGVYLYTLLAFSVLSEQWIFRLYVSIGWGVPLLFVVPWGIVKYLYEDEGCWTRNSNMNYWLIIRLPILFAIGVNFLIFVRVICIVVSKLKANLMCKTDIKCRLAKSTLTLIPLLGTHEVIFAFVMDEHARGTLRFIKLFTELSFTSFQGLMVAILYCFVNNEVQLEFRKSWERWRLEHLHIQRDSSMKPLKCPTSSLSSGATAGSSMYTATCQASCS

SMILES | CTA score [1] | EC50 ([2]; EC50 GLP-1R/nM, Table 3A) | EC50 ([3]; EC50 GIP-R/nM, Table 3A) | Emax ([3]; Table 3A) | EC50 [4] | AUC score [5] | EC50 ([2]; EC50 GLP-1R/nM, Table 3) | Emax ([2]; Table 3) | Emax ([2]; Table 3A) | EC50 ([3]; EC50 GIP-R/nM, Table 3) | Emax ([3]; Table 3) | EC50 [2, 6] | EC50 [3, 7] | EC50 [4, 8]
CCCCCCCCCCCCCCCC(=O)N[C@@H](CCC(=O)NCCCC[C@H](NC(=O)[C@H](CO)NC(=O)[C@@H]1CCCN1C(=O)[C@@H]1CCCN1C(=O)[C@@H]1CCCN1C(=O)[C@H](C)NC(=O)CNC(=O)[C@H](CO)NC(=O)[C@H](CO)NC(=O)[C@@H]1CCCN1C(=O)CNC(=O)CNC(=O)[C@H](C)NC(=O)[C@H](CC(C)C)NC(=O)[C@H](CC(C)C)NC(=O)[C@H](Cc1c[nH]c2ccccc12)NC(=O)[C@H](CC(N)=O)NC(=O)[C@@H](NC(=O)[C@H](Cc1ccccc1)NC(=O)[C@H](CCC(=O)O)NC(=O)C(C)(C)NC(=O)[C@H](C)NC(=O)[C@H](C)NC(=O)[C@H](CCC(N)=O)NC(=O)[C@H](CCCCN)NC(=O)[C@H](CC(=O)O)NC(=O)[C@H](CC(C)C)NC(=O)[C@H](Cc1ccc(O)cc1)NC(=O)[C@@H](NC(=O)[C@H](CO)NC(=O)[C@H](Cc1ccc(O)cc1)NC(=O)[C@H](CC(=O)O)NC(=O)[C@H](CO)NC(=O)[C@@H](NC(=O)[C@H](Cc1ccccc1)NC(=O)[C@@H](NC(=O)CNC(=O)[C@H](CCC(=O)O)NC(=O)CSCC(=O)NCCN1CCC(O)CC1=O)[C@@H](C)O)[C@@H](C)O)[C@@H](C)CC)C(C)C)C(N)=O)C(=O)O (single isomer, unassigned) [Compound 202] | 4 (Score 4 = 76-100%) | < 0.1 nM | 0.1 to 1 nM | 67% | > 1000 nM |  |  |  |  |  |  |  |  | 
CCCCCCCCCCCCCCCC(=O)N[C@@H](CCC(=O)NCCCC[C@H](NC(=O)[C@H](CO)NC(=O)[C@@H]1CCCN1C(=O)[C@@H]1CCCN1C(=O)[C@@H]1CCCN1C(=O)[C@H](C)NC(=O)CNC(=O)[C@H](CO)NC(=O)[C@H](CO)NC(=O)[C@@H]1CCCN1C(=O)CNC(=O)CNC(=O)[C@H](C)NC(=O)[C@H](CC(C)C)NC(=O)[C@H](CC(C)C)NC(=O)[C@H](Cc1c[nH]c2ccccc12)NC(=O)[C@H](CC(N)=O)NC(=O)[C@@H](NC(=O)[C@H](Cc1ccccc1)NC(=O)[C@H](CCC(=O)O)NC(=O)C(C)(C)NC(=O)[C@H](C)NC(=O)[C@H](C)NC(=O)[C@H](CCC(N)=O)NC(=O)[C@H](CCCCN)NC(=O)[C@H](CC(=O)O)NC(=O)[C@H](CC(C)C)NC(=O)[C@H](Cc1ccc(O)cc1)NC(=O)[C@@H](NC(=O)[C@H](CO)NC(=O)[C@H](Cc1ccc(O)cc1)NC(=O)[C@H](CC(=O)O)NC(=O)[C@H](CO)NC(=O)[C@@H](NC(=O)[C@H](Cc1ccccc1)NC(=O)[C@@H](NC(=O)CNC(=O)[C@H](CCC(=O)O)NC(=O)CSCC(=O)NCCN1C(=O)C[C@H](C)C1=O)[C@@H](C)O)[C@@H](C)O)[C@@H](C)CC)C(C)C)C(N)=O)C(=O)O [Compound 91] | 4 (Score 4 = 76-100%) | 1 to 10 nM | 1 to 10 nM | 85% | > 1000 nM | 3 (AUC score 3 = 51-75%) | 1 to 10 nM | 98% | 98% | 1 to 10 nM | 85% |  |  | 
CCCCCCCCCCCCCCCC(=O)N[C@@H](CCC(=O)NCCCC[C@H](NC(=O)[C@H](CO)NC(=O)[C@@H]1CCCN1C(=O)[C@@H]1CCCN1C(=O)[C@@H]1CCCN1C(=O)[C@H](C)NC(=O)CNC(=O)[C@H](CO)NC(=O)[C@H](CO)NC(=O)[C@@H]1CCCN1C(=O)CNC(=O)CNC(=O)[C@H](C)NC(=O)[C@H](CC(C)C)NC(=O)[C@H](CC(C)C)NC(=O)[C@H](Cc1c[nH]c2ccccc12)NC(=O)[C@H](CC(N)=O)NC(=O)[C@@H](NC(=O)[C@H](Cc1ccccc1)NC(=O)[C@H](CCC(=O)O)NC(=O)C(C)(C)NC(=O)[C@H](C)NC(=O)[C@H](C)NC(=O)[C@H](CCC(N)=O)NC(=O)[C@H](CCCCN)NC(=O)[C@H](CC(=O)O)NC(=O)[C@H](CC(C)C)NC(=O)[C@H](Cc1ccc(O)cc1)NC(=O)[C@@H](NC(=O)[C@H](CO)NC(=O)[C@H](Cc1ccc(O)cc1)NC(=O)[C@H](CC(=O)O)NC(=O)[C@H](CO)NC(=O)[C@@H](NC(=O)[C@H](Cc1ccccc1)NC(=O)[C@@H](NC(=O)CNC(=O)[C@H](CCC(=O)O)NC(=O)CCNC(=O)CN1CCOCC1=O)[C@@H](C)O)[C@@H](C)O)[C@@H](C)CC)C(C)C)C(N)=O)C(=O)O [Compound 233] |  |  |  | 77% |  | 2 (AUC score 2 = 26-50%) |  |  | 96% |  |  | < 0.1 nM | 1 to 10 nM | 10 to 1000 nM
CCCCCCCCCCCCCCCC(=O)N[C@@H](CCC(=O)NCCCC[C@H](NC(=O)[C@H](CO)NC(=O)[C@@H]1CCCN1C(=O)[C@@H]1CCCN1C(=O)[C@@H]1CCCN1C(=O)[C@H](C)NC(=O)CNC(=O)[C@H](CO)NC(=O)[C@H](CO)NC(=O)[C@@H]1CCCN1C(=O)CNC(=O)CNC(=O)[C@H](C)NC(=O)[C@H](CC(C)C)NC(=O)[C@H](CC(C)C)NC(=O)[C@H](Cc1c[nH]c2ccccc12)NC(=O)[C@H](CC(N)=O)NC(=O)[C@@H](NC(=O)[C@H](Cc1ccccc1)NC(=O)[C@H](CCC(=O)O)NC(=O)C(C)(C)NC(=O)[C@H](C)NC(=O)[C@H](C)NC(=O)[C@H](CCC(N)=O)NC(=O)[C@H](CCCCN)NC(=O)[C@H](CC(=O)O)NC(=O)[C@H](CC(C)C)NC(=O)[C@H](Cc1ccc(O)cc1)NC(=O)[C@@H](NC(=O)[C@H](CO)NC(=O)[C@H](Cc1ccc(O)cc1)NC(=O)[C@H](CC(=O)O)NC(=O)[C@H](CO)NC(=O)[C@@H](NC(=O)[C@H](Cc1ccccc1)NC(=O)[C@@H](NC(=O)CNC(=O)[C@H](CCC(=O)O)NC(=O)CCNC(=O)Cn1ccccc1=O)[C@@H](C)O)[C@@H](C)O)[C@@H](C)CC)C(C)C)C(N)=O)C(=O)O [Compound 234] |  |  |  | 76% |  | 3 (AUC score 3 = 51-75%) |  |  | 97% |  |  | 0.1 to 1 nM | 1 to 10 nM | > 1000 nM
CCCCCCCCCCCCCCCC(=O)N[C@@H](CCC(=O)NCCCC[C@H](NC(=O)[C@H](CO)NC(=O)[C@@H]1CCCN1C(=O)[C@@H]1CCCN1C(=O)[C@@H]1CCCN1C(=O)[C@H](C)NC(=O)CNC(=O)[C@H](CO)NC(=O)[C@H](CO)NC(=O)[C@@H]1CCCN1C(=O)CNC(=O)CNC(=O)[C@H](C)NC(=O)[C@H](CC(C)C)NC(=O)[C@H](CC(C)C)NC(=O)[C@H](Cc1c[nH]c2ccccc12)NC(=O)[C@H](CC(N)=O)NC(=O)[C@@H](NC(=O)[C@H](Cc1ccccc1)NC(=O)[C@H](CCC(=O)O)NC(=O)C(C)(C)NC(=O)[C@H](C)NC(=O)[C@H](C)NC(=O)[C@H](CCC(N)=O)NC(=O)[C@H](CCCCN)NC(=O)[C@H](CC(=O)O)NC(=O)[C@H](CC(C)C)NC(=O)[C@H](Cc1ccc(O)cc1)NC(=O)[C@@H](NC(=O)[C@H](CO)NC(=O)[C@H](Cc1ccc(O)cc1)NC(=O)[C@H](CC(=O)O)NC(=O)[C@H](CO)NC(=O)[C@@H](NC(=O)[C@H](Cc1ccccc1)NC(=O)[C@@H](NC(=O)CNC(=O)[C@H](CCC(=O)O)NC(=O)CCNC(=O)CN1CCCCCC1=O)[C@@H](C)O)[C@@H](C)O)[C@@H](C)CC)C(C)C)C(N)=O)C(=O)O [Compound 266] |  |  |  | 70% |  | 2 (AUC score 2 = 26-50%) |  |  | 100% |  |  | < 0.1 nM | 1 to 10 nM | < 10 nM
